The source of these data is publication PMC9293752, “Cholenic acid derivative UniPR1331 impairs tumor angiogenesis via blockade of VEGF/VEGFR2 in addition to Eph/ephrin” (Cancer Gene Therapy, 2021).

The target of the test is T1, VEGFR2 (Homo sapiens, UniProt P35968).
T1 construct: gene KDR; monomeric recombinant form of the extracellular portion of VEGFR2 fused to Fc
The experiment in a line: SPR (BIAcore X100), steady-state Scatchard analysis; supported by VEGF/VEGFR2 ELISA displacement (IC50 […]). The class given is binding. Background: Surface plasmon resonance follows binding to a sensor surface in real time, without labels.

For orientation: Kd means the concentration at which binding is half-saturated.

T1 sequence (P35968 20-764 limits assumed): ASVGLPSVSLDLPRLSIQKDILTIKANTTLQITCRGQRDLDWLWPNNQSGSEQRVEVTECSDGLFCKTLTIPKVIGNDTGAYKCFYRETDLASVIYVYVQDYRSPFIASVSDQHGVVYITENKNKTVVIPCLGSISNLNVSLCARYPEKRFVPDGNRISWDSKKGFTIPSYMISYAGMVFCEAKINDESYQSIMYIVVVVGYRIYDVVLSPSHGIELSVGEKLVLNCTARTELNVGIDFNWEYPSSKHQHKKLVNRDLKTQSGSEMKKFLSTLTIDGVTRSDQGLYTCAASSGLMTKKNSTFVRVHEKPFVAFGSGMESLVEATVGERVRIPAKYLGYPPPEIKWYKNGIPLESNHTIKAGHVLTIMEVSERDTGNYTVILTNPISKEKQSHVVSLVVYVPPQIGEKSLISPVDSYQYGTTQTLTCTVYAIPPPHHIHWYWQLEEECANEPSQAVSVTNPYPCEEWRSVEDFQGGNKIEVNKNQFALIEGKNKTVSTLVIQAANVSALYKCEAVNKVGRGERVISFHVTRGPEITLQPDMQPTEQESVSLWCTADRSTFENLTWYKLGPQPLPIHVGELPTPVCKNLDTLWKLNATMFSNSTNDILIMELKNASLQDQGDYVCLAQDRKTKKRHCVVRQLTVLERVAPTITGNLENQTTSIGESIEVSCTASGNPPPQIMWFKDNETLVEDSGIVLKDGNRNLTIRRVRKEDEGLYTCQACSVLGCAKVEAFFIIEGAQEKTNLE

Compound `C[C@H](CCC(=O)N[C@@H](Cc1c[nH]c2ccccc12)C(=O)O)[C@H]1CC[C@H]2[C@@H]3CC=C4C[C@@H](O)CC[C@]4(C)[C@H]3CC[C@]12C` [UniPR1331] registered a Kd of 62.2 ± 2.1 µM.
